Results taken from patent US5223169A, “Hydrolase surfactant systems and their use in laundering” (priority 1991, dated 1993).

Tests used:
Assay in all cases: pH-stat assay of triglyceride emulsion hydrolysis; critical oil-to-surfactant ratio
Enzyme Amano P = molecular target: T1, Enzyme Amano P (Burkholderia cepacia, UniProt P22088); format: biochemical, P. fluorescens
T1 construct: purchased Amano Co
Description: (§1) To determine the critical ratio for any specific enzyme-surfactant combination, aliquots of an aqueous solution, each containing a determined (constant) amount of the enzyme which is effective in the absence of any surfactant to hydrolyze the triglycerides in an oily stain on a determined (constant) amount of a fabric soiled by a determined (constant) amount of a triglyceride oil, are mixed with a determined (constant) amount of a surfactant which is within the range of the amounts conventionally present in home laundry solutions, e.g., from about 0.2 to 1.5. mM, and which is effective to inhibit the hydrolyzing activity of the enzyme. To the aliquots are added a hydrolysis activator, e.g., trioctanoin, in increasing amounts and the hydrolyzing activity of the enzyme in the various solutions is determined.
(§2) The experiments determining enzyme activity, such as those set out in Tables IA and IB, were carried out as follows:
(§3) The desired amount of triglyceride was weighed into an appropriate size beaker, on a Mettler balance (model number AE163). The corresponding amount of surfactant was added to the triglyceride, from a previously prepared aqueous surfactant stock solution, and the triglyceride and surfactant mixed manually. The sample was then adjusted to the desired weight using doubly distilled H2 O. Emulsification of the sample was carried out, prior to assaying enzyme activity, with a probe sonicator (Braun-Sonic model 2000), on ice, for approx. 2 minutes.
(§4) (ii) Enzyme Activity Measurement:
(§5) This was achieved by monitoring the rate of acid liberation, from the enzymatic hydrolysis of the triglycerides in the emulsion. The assay was initiated by adding approx. 2 ppm lipase to 10 ml of the prepared emulsion. The acid liberated was monitored by autotitration, on a Radiometer pH-stat (model number ABU80) to an endpoint of a pH of 10. Initial rates were recorded for the first 5 minutes of the reaction, and the reaction rates reported as μmole H^+ titrated . min ^-1 mgE^-1. Occasionally enzyme activity is reported as % total oil hydrolyzed in 14 min. In these examples, the reaction was allowed to run for 14 min. and the amount of acid titrated recorded. The % total oil (triglyceride) hydrolyzed was then calculated by dividing the recorded value with the theoretically calculated value assuming three equivalents of oleic acid was produced for each triglyceride equivalent. All assays were run at ambient temperatures.

[1] = tested on: enzyme from P. putida ATCC 53552 (lipase GC-1065); format: biochemical, Pseudomonas putida; conditions: for Critical Ratio / Enzyme Activity: Surfonic JL80X 0.5 mM
Description: as §1, §2, §3, §4, §5

Enzyme Amano 68S = format: biochemical, P. sp.; conditions: for Critical Ratio / Enzyme Activity: surfactant conc.: SDS 1 mM
Description: as §1, §2, §3, §4, §5

[2] = Table III, trioctanoin, surfactant conc.: SDS 2 mM, C12 LAS 1 mM, Neodol 25-3S 2 mM, Neodol 25-9 0.5 mM, Surfonic JL80X 0.5 mM
[3] = Table Summary, second block of lines (corresponds to triolein Tables VI-IX)
[4] = Table VII, triolein, surfactant conc.: SDS 1 mM, others 0.5 mM
[5] = triolein emulsions, high conc.: SDS 10 mM, C12 LAS 5 mM, Neodol 25-9 5 mM, Neodol 25-3S 5 mM, Surfonic JL-80X 2.5 mM
[6] = Table II, trioctanoin, surfactant conc.: SDS 2 mM, C12 LAS 1 mM, Neodol 25-3S 2 mM, Neodol 25-9 0.5 mM, Triton X100 2 mM
[7] = Table VI, triolein, surfactant conc.: SDS 1 mM, C12 LAS 0.5 mM, Neodol 25-3S 1 mM, Neodol 25-9 0.5 mM
[8] = Table IV, trioctanoin, C12 LAS 0.2 mM, Neodol 25-3S 0.5 mM, Neodol 25-9 0.5 mM, Surfonic JL80X 0.5 mM
[9] = Table VIII, triolein, C12 LAS 0.5 mM, Neodol 25-3S 0.5 mM, Neodol 25-9 0.5 mM, Surfonic JL80X 2.5 mM

T1 sequence (P22088 45-364): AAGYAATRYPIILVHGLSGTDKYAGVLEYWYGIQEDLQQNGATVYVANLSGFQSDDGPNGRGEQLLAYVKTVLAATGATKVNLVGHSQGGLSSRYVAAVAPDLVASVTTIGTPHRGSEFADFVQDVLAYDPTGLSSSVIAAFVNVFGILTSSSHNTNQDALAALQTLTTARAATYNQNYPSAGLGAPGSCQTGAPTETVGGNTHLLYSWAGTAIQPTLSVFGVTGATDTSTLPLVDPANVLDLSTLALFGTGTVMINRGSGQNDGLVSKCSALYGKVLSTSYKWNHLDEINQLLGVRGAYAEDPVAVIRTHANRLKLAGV

## CCCCCCCCCCCCOS(=O)(=O)[O-].[Na+] [SDS, sodium dodecylsulfate]
Enzyme Amano P; [2]
  Critical Ratio: 1-5
  Enzyme Activity: 100 μmole H^+ released min^-1 mgE^
Enzyme Amano P; [3]
  critical ratio class, Amano P: 0 (means a critical ratio of 1.0-10)
Enzyme Amano P; [4]
  Critical Ratio: 5-10
  Enzyme Activity: 160 μmole H^+ released min^-1 mgE^
Enzyme Amano P; trioctanoin emulsions, high surfactant conc. as E43
  Specific Activity determined from initial rates, AMANO P, High: 200 μeq acid/min.mg
Enzyme Amano P; trioctanoin emulsions, lipase ~2 ppm, high conc.: SDS 10 mM, C12 LAS 5 mM, Neodol 25-9 5 mM, Neodol 25-3S 20 mM, Surfonic JL-80X 5 mM
  Critical Ratio, AMANO P, High: 5-10
Enzyme Amano P; trioctanoin emulsions, lipase ~2 ppm, low conc.: SDS 2 mM, C12 LAS 1 mM, Neodol 25-9 0.5 mM, Neodol 25-3S 2.0 mM, Surfonic JL-80X 0.5 mM
  Critical Ratio, AMANO P, Low: 1-5
Enzyme Amano P; trioctanoin emulsions, low surfactant conc. as E42
  Specific Activity determined from initial rates, AMANO P, Low: 100 μeq acid/min.mg
Enzyme Amano P; triolein emulsions, high conc. as E57
  Activity (specific hydrolysis activity from initial rates), AMANO P, High: 150 μeq acid/min./mg
Enzyme Amano P; [5]
  R, critical (minimum activating molar) ratio, AMANO P, High: 5-10
Enzyme Amano P; triolein emulsions, low conc. as E56
  Activity (specific hydrolysis activity from initial rates), AMANO P, Low: 160 μeq acid/min./mg
Enzyme Amano P; triolein emulsions, low conc.: SDS 1 mM, others 0.5 mM
  R, critical (minimum activating molar) ratio, AMANO P, Low: 5-10
[1]; [6]
  Critical Ratio: 0.5-5.0
  Enzyme Activity: 325 μmole H^+ released min^-1 mgE^
[1]; [3]
  critical ratio class, enzyme From ATCC 53552: 0 (means a critical ratio of 1.0-10)
[1]; [7]
  Critical Ratio: 5-10
  Enzyme Activity: 60 μmole H^+ released min^-1 mgE^
[1]; trioctanoin emulsions, high surfactant conc. as E41
  Specific Activity determined from initial rates, GC-1065, High: 450 μeq acid/min.mg
[1]; trioctanoin emulsions, lipase ~2 ppm, high surfactant conc.: SDS 10 mM, C12 LAS 5 mM, Neodol 25-9 5 mM, Neodol 25-3S 10 mM, Surfonic JL-80X 5 mM, Triton X-100 10 mM, C16 DAPS 10 mM
  Critical Ratio, GC-1065, High: 1-3
[1]; trioctanoin emulsions, lipase ~2 ppm, low surfactant conc.: SDS 2 mM, C12 LAS 1 mM, Neodol 25-9 0.5 mM, Neodol 25-3S 2 mM, Surfonic JL-80X 0.5 mM, Triton X-100 2 mM, C16 DAPS 0.5 mM
  Critical Ratio, GC-1065, Low: 0.5-5.0
[1]; trioctanoin emulsions, low surfactant conc. as E40
  Specific Activity determined from initial rates, GC-1065, Low: 325 μeq acid/min.mg
[1]; triolein emulsions, high conc. as E55
  Activity (specific hydrolysis activity from initial rates), GC-1065, High: 50 μeq acid/min./mg
[1]; [5]
  R, critical (minimum activating molar) ratio, GC-1065, High: 1-5
[1]; triolein emulsions, low conc. as E54
  Activity (specific hydrolysis activity from initial rates), GC-1065, Low: 60 μeq acid/min./mg
[1]; triolein emulsions, low conc.: SDS 1 mM, C12 LAS 0.5 mM, Neodol 25-9 0.5 mM, Neodol 25-3S 1 mM, Surfonic JL-80X 0.5 mM
  R, critical (minimum activating molar) ratio, GC-1065, Low: 5-10
Enzyme Amano 68S; [8]
  Critical Ratio: 0.1-0.5
  Enzyme Activity: 400 μmole H^+ released min^-1 mgE^
Enzyme Amano 68S; [3]
  critical ratio class, Amano 68S: 0 (means a critical ratio of 1.0-10)
Enzyme Amano 68S; [9]
  Critical Ratio: 1-5
  Enzyme Activity: 200 μmole H^+ released min^-1 mgE^
Enzyme Amano 68S; trioctanoin emulsions, high surfactant conc. as E45
  Specific Activity determined from initial rates, AMANO 68S, High: 1200 μeq acid/min.mg
Enzyme Amano 68S; trioctanoin emulsions, lipase ~2 ppm, high conc.: SDS 10 mM, C12 LAS 2 mM, Neodol 25-9 5 mM, Neodol 25-3S 10 mM, Surfonic JL-80X 5 mM
  Critical Ratio, AMANO 68S, High: 10-15
Enzyme Amano 68S; trioctanoin emulsions, lipase ~2 ppm, low conc.: SDS 1 mM, C12 LAS 0.2 mM, Neodol 25-9 0.5 mM, Neodol 25-3S 0.5 mM, Surfonic JL-80X 0.5 mM
  Critical Ratio, AMANO 68S, Low: 0.1-0.5
Enzyme Amano 68S; trioctanoin emulsions, low surfactant conc. as E44
  Specific Activity determined from initial rates, AMANO 68S, Low: 400 μeq acid/min.mg
Enzyme Amano 68S; triolein emulsions, high conc. as E59
  Activity (specific hydrolysis activity from initial rates), AMANO 68S, High: 175 μeq acid/min./mg
Enzyme Amano 68S; triolein emulsions, high conc.: SDS 10 mM, C12 LAS 5 mM, Neodol 25-9 5 mM, Neodol 25-3S 5 mM, Surfonic JL-80X 2.5 mm
  R, critical (minimum activating molar) ratio, AMANO 68S, High: 5-10
Enzyme Amano 68S; triolein emulsions, low conc. as E58
  Activity (specific hydrolysis activity from initial rates), AMANO 68S, Low: 200 μeq acid/min./mg
Enzyme Amano 68S; triolein emulsions, low conc.: SDS 1 mM, C12 LAS 0.5 mM, Neodol 25-9 0.5 mM, Neodol 25-3S 0.5 mM, Surfonic JL-80X 2.5 mM
  R, critical (minimum activating molar) ratio, AMANO 68S, Low: 1-5
